These results are taken from US20090018134A1, “Compounds - 945” (AstraZeneca AB, priority 2007, published 2009).

Each structure is given as a SMILES string. pIC50: −log10 of the molar value.

The assay deals with T1, mTOR (Homo sapiens, UniProt P42345).
T1 construct: FLAG; made in house
T1 sequence (P42345 1362-2549): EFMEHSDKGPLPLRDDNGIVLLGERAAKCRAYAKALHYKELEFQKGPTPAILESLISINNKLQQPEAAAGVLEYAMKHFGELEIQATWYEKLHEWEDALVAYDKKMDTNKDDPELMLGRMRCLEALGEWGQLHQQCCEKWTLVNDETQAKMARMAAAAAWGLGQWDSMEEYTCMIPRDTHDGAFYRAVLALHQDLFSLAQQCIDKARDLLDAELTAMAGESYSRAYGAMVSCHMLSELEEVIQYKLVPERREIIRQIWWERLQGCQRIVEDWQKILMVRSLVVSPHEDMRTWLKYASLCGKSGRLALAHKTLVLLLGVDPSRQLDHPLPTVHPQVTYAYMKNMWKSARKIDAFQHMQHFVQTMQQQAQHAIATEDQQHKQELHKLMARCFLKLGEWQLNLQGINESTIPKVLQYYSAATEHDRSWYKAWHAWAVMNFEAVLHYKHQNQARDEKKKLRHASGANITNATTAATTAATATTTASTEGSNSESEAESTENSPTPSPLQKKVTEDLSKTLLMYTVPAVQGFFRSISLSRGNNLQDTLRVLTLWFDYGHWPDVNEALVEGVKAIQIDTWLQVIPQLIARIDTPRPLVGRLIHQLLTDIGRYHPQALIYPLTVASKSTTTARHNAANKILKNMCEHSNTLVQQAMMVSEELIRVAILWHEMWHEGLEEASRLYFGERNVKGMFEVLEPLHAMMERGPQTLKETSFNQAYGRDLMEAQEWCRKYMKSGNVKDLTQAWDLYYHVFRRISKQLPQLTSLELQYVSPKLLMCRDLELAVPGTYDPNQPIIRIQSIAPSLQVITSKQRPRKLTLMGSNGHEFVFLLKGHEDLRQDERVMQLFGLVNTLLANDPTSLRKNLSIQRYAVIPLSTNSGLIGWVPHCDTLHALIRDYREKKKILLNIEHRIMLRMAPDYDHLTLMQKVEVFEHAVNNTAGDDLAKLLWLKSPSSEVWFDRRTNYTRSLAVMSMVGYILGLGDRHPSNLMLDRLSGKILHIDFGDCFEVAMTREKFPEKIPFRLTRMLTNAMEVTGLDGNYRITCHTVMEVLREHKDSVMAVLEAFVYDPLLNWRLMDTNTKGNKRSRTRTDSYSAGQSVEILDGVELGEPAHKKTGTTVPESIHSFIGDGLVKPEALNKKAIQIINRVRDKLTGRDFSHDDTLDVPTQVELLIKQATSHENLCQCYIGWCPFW
Put plainly: In Vitro mTOR Kinase Assay (Echo), Test (a)(ii). In kind it is biochemical. Conditions: table of enzyme assay Test (a)(ii); read-out: Test (a)(ii) IC50. Put shortly: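 Inhibition expressed as IC50 from an AlphaScreen read-out: phospho-T389 p70 S6K antibody plus streptavidin donor/protein A acceptor beads, left overnight in the dark. The kinase reaction ran 2 h at room temperature, then was stopped with EDTA. Enzyme: FLAG-purified mTOR 1362-2549 fragment from stable HEK293 cells.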
What is called pIC50 is −log10 of the IC50, conventionally taken in molar units. As to `C[C@H]1COCCN1c1cc(C2(S(C)(=O)=O)CC2)nc(-c2ccc(NC(=O)NC3CC3)c(F)c2)n1` [Example 52, 3-cyclopropyl-1-[2-fluoro-4-[4-[(3S)-3-methylmorpholin-4-yl]-6-(1-methylsulfonylcyclopropyl)pyrimidin-2-yl]phenyl]urea], the pIC50 is 7.74.

`CNC(=O)Nc1ccc(-c2nc(N3CCOC[C@@H]3C)cc(C3(S(C)(=O)=O)CC3)n2)cc1F` [Example 52a, 1-[2-fluoro-4-[4-[(3S)-3-methylmorpholin-4-yl]-6-(1-methylsulfonylcyclopropyl)pyrimidin-2-yl]phenyl]-3-methylurea]: the pIC50 is 7.99.

Turning to `CCNC(=O)Nc1ccc(-c2nc(N3CCOC[C@@H]3C)cc(C3(S(C)(=O)=O)CC3)n2)cc1F` [Example 52b, 3-ethyl-1-[2-fluoro-4-[4-[(3S)-3-methylmorpholin-4-yl]-6-(1-methylsulfonylcyclopropyl)pyrimidin-2-yl]phenyl]urea], the pIC50 was 7.51.

For `C[C@H]1COCCN1c1cc(C2(S(C)(=O)=O)CC2)nc(-c2ccc(NC(=O)NCCO)c(F)c2)n1` [Example 52c, 1-[2-fluoro-4-[4-[(3S)-3-methylmorpholin-4-yl]-6-(1-methylsulfonylcyclopropyl)pyrimidin-2-yl]phenyl]-3-(2-hydroxyethyl)urea], the negative logarithm of the IC50 (pIC50) was 7.53.

As to `CNC(=O)Nc1ccc(-c2nc(N3CCOC[C@@H]3C)cc(C3(S(=O)(=O)c4cccc(F)c4)CC3)n2)cc1` [Example 53, 1-[4-[4-[1-(3-Fluorophenyl)sulfonylcyclopropyl]-6-[(3S)-3-methylmorpholin-4-yl]pyrimidin-2-yl]phenyl]-3-methylurea], the pIC50 was 8.66.

Regarding `C[C@H]1COCCN1c1cc(C2(S(=O)(=O)c3cccc(F)c3)CC2)nc(-c2ccc(NC(=O)NC3CC3)cc2)n1` [Example 53a, 3-cyclopropyl-1-[4-[4-[1-(3-fluorophenyl)sulfonylcyclopro-pyl]-6-[(3S)-3-methylmorpholin-4-yl]pyrimidin-2-yl]phenyl]urea], the pIC50 was 8.64.

Take `C[C@H]1COCCN1c1cc(C2(S(=O)(=O)c3cccc(F)c3)CC2)nc(-c2ccc(NC(=O)NCCO)cc2)n1` [Example 53b, 1-[4-[4-[1-(3-fluorophenyl)sulfonylcyclopro-pyl]-6-[(3S)-3-methylmorpholin-4-yl]pyrimidin-2-yl]phenyl]-3-(2-hydroxyethyl)urea]: the pIC50 is 9.17.

With `C[C@H]1COCCN1c1cc(C2(S(=O)(=O)c3cccc(F)c3)CC2)nc(-c2ccc(NC(=O)NCCF)cc2)n1` [Example 53c, 3-(2-fluoroethyl)-1-[4-[4-[1-(3-fluorophenyl)sulfonylcyclopro-pyl]-6-[(3S)-3-methylmorpholin-4-yl]pyrimidin-2-yl]phenyl]urea], the pIC50 was 9.16.

Consider `C[C@H]1COCCN1c1cc(C2(S(=O)(=O)c3cccc(F)c3)CC2)nc(-c2ccc(NC(=O)NCC(F)F)cc2)n1` [Example 53d, 3-(2,2-difluoroethyl)-1-[4-[4-[1-(3-fluorophenyl)sulfonylcyclopro-pyl]-6-[(3S)-3-methylmorpholin-4-yl]pyrimidin-2-yl]phenyl]urea], for which the pIC50 is 8.51.

For the compound `CCNC(=O)Nc1ccc(-c2nc(N3CCOC[C@@H]3C)cc(C3(S(=O)(=O)c4cccc(F)c4)CC3)n2)cc1` [Example 53e, 1-ethyl-3-[4-[4-[1-(3-fluorophenyl)sulfonylcyclopro-pyl]-6-[(3S)-3-methylmorpholin-4-yl]pyrimidin-2-yl]phenyl]urea], the pIC50 was 8.70.

Take `C[C@H]1COCCN1c1cc(C2(S(=O)(=O)c3cccc(F)c3)CC2)nc(-c2ccc(NC(=O)Nc3cnn(C)c3)cc2)n1` [Example 53f, 1-[4-[4-[1-(3-fluorophenyl)sulfonylcyclopro-pyl]-6-[(3S)-3-methylmorpholin-4-yl]pyrimidin-2-yl]phenyl]-3-(1-methylpyrazol-4-yl)urea]: the pIC50 is 8.20.

For the compound `CNC(=O)Nc1ccc(-c2nc(N3CCOC[C@@H]3C)cc(C3(S(=O)(=O)c4ccccc4C)CC3)n2)cc1` [Example 54, 3-Methyl-1-[4-[4-[(3S)-3-methylmorpholin-4-yl]-6-[1-(2-methylphenyl)sulfonylcyclopropyl]pyrimidin-2-yl]phenyl]urea], the pIC50 was 8.66.

As for `Cc1ccccc1S(=O)(=O)C1(c2cc(N3CCOC[C@@H]3C)nc(-c3ccc(NC(=O)NC4CC4)cc3)n2)CC1` [Example 54a, 3-cyclopropyl-1-[4-[4-[(3S)-3-methylmorpholin-4-yl]-6-[1-(2-methylphenyl)sulfonylcyclo-propyl]pyrimidin-2-yl]phenyl]urea], the pIC50 is 8.04.

In the case of `Cc1ccccc1S(=O)(=O)C1(c2cc(N3CCOC[C@@H]3C)nc(-c3ccc(NC(=O)NCCO)cc3)n2)CC1` [Example 54b, 3-(2-hydroxyethyl)-1-[4-[4-[(3S)-3-methylmorpholin-4-yl]-6-[1-(2-methylphenyl)sulfonylcyclo-propyl]pyrimidin-2-yl]phenyl]urea], the pIC50 is 8.50.

Consider `Cc1ccccc1S(=O)(=O)C1(c2cc(N3CCOC[C@@H]3C)nc(-c3ccc(NC(=O)NCCF)cc3)n2)CC1` [Example 54c, 3-(2-fluoroethyl)-1-[4-[4-[(3S)-3-methylmorpholin-4-yl]-6-[1-(2-methylphenyl)sulfonylcyclo-propyl]pyrimidin-2-yl]phenyl]urea], for which the pIC50 was 8.34.

Consider `Cc1ccccc1S(=O)(=O)C1(c2cc(N3CCOC[C@@H]3C)nc(-c3ccc(NC(=O)NCC(F)F)cc3)n2)CC1` [Example 54d, 3-(2,2-difluoroethyl)-1-[4-[4-[(3S)-3-methylmorpholin-4-yl]-6-[1-(2-methylphenyl)sulfonylcyclo-propyl]pyrimidin-2-yl]phenyl]urea], for which the pIC50 is 8.05.

As for `CCNC(=O)Nc1ccc(-c2nc(N3CCOC[C@@H]3C)cc(C3(S(=O)(=O)c4ccccc4C)CC3)n2)cc1` [Example 54e, 1-ethyl-3-[4-[4-[(3S)-3-methylmorpholin-4-yl]-6-[1-(2-methylphenyl)sulfonylcyclo-propyl]pyrimidin-2-yl]phenyl]urea], the pIC50 is 8.12.

In the case of `Cc1ccccc1S(=O)(=O)C1(c2cc(N3CCOC[C@@H]3C)nc(-c3ccc(NC(=O)Nc4cnn(C)c4)cc3)n2)CC1` [Example 54f, 1-[4-[4-[(3S)-3-methylmorpholin-4-yl]-6-[1-(2-methylphenyl)sulfonylcyclo-propyl]pyrimidin-2-yl]phenyl]-3-(1-methylpyrazol-4-yl)urea], the pIC50 was 7.97.

On to `CNC(=O)Nc1ccc(-c2nc(N3CCOC[C@@H]3C)cc(C3(S(=O)(=O)c4cn(C)nc4C)CC3)n2)cc1` [Example 55, 1-[4-[4-[1-(1,3-Dimethylpyrazol-4-yl)sulfonylcyclopropyl]-6-[(3S)-3-methylmorpholin-4-yl]pyrimidin-2-yl]phenyl]-3-methylurea], for which the pIC50 is 8.53.

Turning to `Cc1nn(C)cc1S(=O)(=O)C1(c2cc(N3CCOC[C@@H]3C)nc(-c3ccc(NC(=O)NC4CC4)cc3)n2)CC1` [Example 55a, 3-cyclopropyl-1-[4-[4-[1-(1,3-dimethylpyrazol-4-yl)sulfonylcyclopropyl]-6-[(3S)-3-methylmorpholin-4-yl]pyrimidin-2-yl]phenyl]urea], the pIC50 was 7.67.

As to `Cc1nn(C)cc1S(=O)(=O)C1(c2cc(N3CCOC[C@@H]3C)nc(-c3ccc(NC(=O)NCCO)cc3)n2)CC1` [Example 55b, 1-[4-[4-[1-(1,3-dimethylpyrazol-4-yl)sulfonylcyclopropyl]-6-[(3S)-3-methylmorpholin-4-yl]pyrimidin-2-yl]phenyl]-3-(2-hydroxyethyl)urea], the pIC50 is 7.79.

With `Cc1nn(C)cc1S(=O)(=O)C1(c2cc(N3CCOC[C@@H]3C)nc(-c3ccc(NC(=O)NCCF)cc3)n2)CC1` [Example 55c, 1-[4-[4-[1-(1,3-dimethylpyrazol-4-yl)sulfonylcyclopropyl]-6-[(3S)-3-methylmorpholin-4-yl]pyrimidin-2-yl]phenyl]-3-(2-fluoroethyl)urea], the pIC50 was 7.72.

For the compound `Cc1nn(C)cc1S(=O)(=O)C1(c2cc(N3CCOC[C@@H]3C)nc(-c3ccc(NC(=O)NCC(F)F)cc3)n2)CC1` [Example 55d, 3-(2,2-difluoroethyl)-1-[4-[4-[1-(1,3-dimethylpyrazol-4-yl)sulfonylcyclopropyl]-6-[(3S)-3-methylmorpholin-4-yl]pyrimidin-2-yl]phenyl]urea], the pIC50 was 7.45.

Consider `CCNC(=O)Nc1ccc(-c2nc(N3CCOC[C@@H]3C)cc(C3(S(=O)(=O)c4cn(C)nc4C)CC3)n2)cc1` [Example 55e, 3-[4-[4-[1-(1,3-dimethylpyrazol-4-yl)sulfonylcyclopropyl]-6-[(3S)-3-methylmorpholin-4-yl]pyrimidin-2-yl]phenyl]-1-ethylurea], for which the pIC50 is 7.69.

In the case of `Cc1nn(C)cc1S(=O)(=O)C1(c2cc(N3CCOC[C@@H]3C)nc(-c3ccc(NC(=O)Nc4cnn(C)c4)cc3)n2)CC1` [Example 55f, 1-[4-[4-[1-(1,3-dimethylpyrazol-4-yl)sulfonylcyclopropyl]-6-[(3S)-3-methylmorpholin-4-yl]pyrimidin-2-yl]phenyl]-3-(1-methylpyrazol-4-yl)urea], the pIC50 was 7.81.

With `O=C(Nc1ccc(-c2nc(N3CCOCC3)cc(C3(S(=O)(=O)c4ccccn4)CC3)n2)cc1)NC1CC1` [Example 56, 3-Cyclopropyl-1-[4-[4-morpholin-4-yl-6-(1-Pyridin-2-ylsulfonylcyclopropyl)pyrimidin-2-yl]phenyl]urea], the pIC50 is 8.64.

`CNC(=O)Nc1ccc(-c2nc(N3CCOCC3)cc(C3(S(=O)(=O)c4ccccn4)CC3)n2)cc1` [Example 56a, 3-methyl-1-[4-[4-morpholin-4-yl-6-(1-pyridin-2-ylsulfonylcyclopropyl)pyrimidin-2-yl]phenyl]urea]: the pIC50 is 8.65.

Take `CCNC(=O)Nc1ccc(-c2nc(N3CCOCC3)cc(C3(S(=O)(=O)c4ccccn4)CC3)n2)cc1` [Example 56b, 3-ethyl-1-[4-[4-morpholin-4-yl-6-(1-pyridin-2-ylsulfonylcyclopropyl)pyrimidin-2-yl]phenyl]urea]: the pIC50 was 8.78.
